# ± gives the standard deviation of the averaged measurements.
# Tests used:
# SNX-5422 [1] = compound: T1, CC1(C)CC(=O)c2c(C(F)(F)F)nn(-c3ccc(C(N)=O)c(N[C@H]4CC[C@H](OC(=O)CN)CC4)c3)c2C1 [SNX-5422]; experiment: surviving fraction relative to DMSO-only wells; higher = less growth inhibition; details: exposure time: 5 days
# Outline: (§1)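 Inhibitors at 0.5, 1, 5, 10, 50, 100, 500 and 1000 nM were applied continuously for five days to tumour cell lines seeded in log phase at 250–500 cells per well in 384-well plates 24 hours earlier. Viability was measured by CellTiter-Glo luminescence and expressed as surviving fraction relative to the median of DMSO-only wells. Luminescence was taken after 10 minutes at room temperature.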
# TIOGUANINE = compound: Nc1nc2[nH]cnc2c(=S)[nH]1 [TIOGUANINE]; experiment: as above; details: exposure time: 5 days
# Outline: as §1
# SNX-5422 [2] = compound: T1, SNX-5422; experiment: area under dose-response curve of surviving fraction (unscaled, Aref=0) (surviving fraction x log10(nM)); higher = more resistant; details: exposure time: 5 days; dose range 0.5-1000 nM
# Outline: (§2)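 Inhibitor was applied to tumour cell lines at eight concentrations (0.5 to 1000 nM) for five days in 384-well plates. Luminescence from CellTiter-Glo, scaled to DMSO-only wells, gave surviving fractions in three screens per line, and these were fitted by 3-parameter logistic regression with the drc R package. The area under the curve is an unscaled activity area. Aref was 0, and dose was on a log10 scale.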
# SAPACITABINE = compound: CCCCCCCCCCCCCCCC(=O)Nc1ccn([C@@H]2O[C@H](CO)[C@@H](O)[C@@H]2C#N)c(=O)n1 [SAPACITABINE]; experiment: as above; details: exposure time: 5 days; dose range 0.5-1000 nM
# Outline: as §2
# AFATINIB = compound: CN(C)C/C=C/C(=O)Nc1cc2c(Nc3ccc(F)c(Cl)c3)ncnc2cc1O[C@H]1CCOC1 [AFATINIB]; experiment: as above; details: exposure time: 5 days; dose range 0.5-1000 nM
# Outline: as §2
# [3] = compound: Cn1cc(C2=Nc3cc(NC(=O)C(N)C4CCCCC4)cc4c3C2=CNNC4=O)cn1; experiment: as above; details: exposure time: 5 days; dose range 0.5-1000 nM
# Outline: as §2
Test System,surviving fraction (SNX-5422 [1]; 0.5 nM),surviving fraction (SNX-5422 [1]; 1 nM),surviving fraction (SNX-5422 [1]; 5 nM),surviving fraction (SNX-5422 [1]; 10 nM),surviving fraction (SNX-5422 [1]; 50 nM),surviving fraction (SNX-5422 [1]; 100 nM),surviving fraction (SNX-5422 [1]; 500 nM),surviving fraction (SNX-5422 [1]; 1000 nM),surviving fraction (TIOGUANINE; 0.5 nM),surviving fraction (TIOGUANINE; 1 nM),surviving fraction (TIOGUANINE; 5 nM),surviving fraction (TIOGUANINE; 10 nM),surviving fraction (TIOGUANINE; 50 nM),surviving fraction (TIOGUANINE; 100 nM),surviving fraction (TIOGUANINE; 500 nM),surviving fraction (TIOGUANINE; 1000 nM),area under dose-response curve (SNX-5422 [2]),area under dose-response curve (SAPACITABINE),area under dose-response curve (AFATINIB),area under dose-response curve [3]
SYO1 SYNOVIAL,1.03 ± 0.031,0.993 ± 0.089,1.02 ± 0.016,0.846 ± 0.059,0.122 ± 0.049,0.0776 ± 0.021,0.0327 ± 0.0032,0.0335 ± 0.0013,0.941 ± 0.043,0.925 ± 0.042,0.917 ± 0.075,0.896 ± 0.021,0.785 ± 0.029,0.645 ± 0.043,0.411 ± 0.022,0.354 ± 0.028,1.47,1.23,2.96,1.84
YAMATO SYNOVIAL,1.2 ± 0.21,1.15 ± 0.13,1.23 ± 0.096,1.17 ± 0.086,0.971 ± 0.21,0.339 ± 0.031,0.318 ± 0.028,0.382 ± 0.031,1.31 ± 0.071,1.21 ± 0.046,1.32 ± 0.052,1.35 ± 0.11,1.36 ± 0.17,1.37 ± 0.06,1.24 ± 0.092,1.06 ± 0.066,2.53,1.68,4.09,2.58
HT1080 SOFT TISSUE,1.02 ± 0.016,1.03 ± 0.0021,1.062 ± 0.0015,1.155 ± 0.01,0.414 ± 0.034,0.238 ± 0.011,0.121 ± 0.007,0.12 ± 0.01,1 ± 0.012,0.989 ± 0.026,0.982 ± 0.016,1.04 ± 0.016,1.02 ± 0.041,0.974 ± 0.022,0.81 ± 0.013,0.594 ± 0.036,2.11,2.33,3.25,2.6
SCC003 HEADNECK,1.16 ± 0.017,1.15 ± 0.12,1.16 ± 0.081,1.13 ± 0.054,0.608 ± 0.023,0.384 ± 0.091,0.0973 ± 0.004,0.0767 ± 0.0055,0.892 ± 0.14,1 ± 0.1,1.01 ± 0.033,0.99 ± 0.094,0.998 ± 0.098,1.1 ± 0.12,0.988 ± 0.047,0.797 ± 0.027,2.21,2.85,2.48,3.25
PCI30 HEADNECK,1.08 ± 0.073,1.06 ± 0.086,1.13 ± 0.041,1.17 ± 0.14,0.716 ± 0.05,0.316 ± 0.065,0.0417 ± 0.0046,0.039 ± 0.001,0.892 ± 0.097,0.847 ± 0.013,0.978 ± 0.097,1.02 ± 0.047,1.02 ± 0.063,1.03 ± 0.016,0.918 ± 0.045,0.88 ± 0.072,2.2,2.94,1.61,2.65
HSSYII SYNOVIAL,0.976 ± 0.035,0.979 ± 0.042,1.09 ± 0.04,0.977 ± 0.0066,0.23 ± 0.015,0.152 ± 0.0056,0.0738 ± 0.003,0.0662 ± 0.0051,0.927 ± 0.055,0.911 ± 0.028,0.954 ± 0.05,0.92 ± 0.027,0.941 ± 0.055,0.972 ± 0.049,0.885 ± 0.02,0.842 ± 0.059,1.9,1.36,2.96,1.67
HCC70 BREAST,1.07 ± 0.05,1.142 ± 0.0055,1.19 ± 0.043,1.17 ± 0.048,0.668 ± 0.11,0.133 ± 0.023,0.127 ± 0.021,0.113 ± 0.016,1.05 ± 0.03,0.896 ± 0.043,1.03 ± 0.069,1 ± 0.013,1.04 ± 0.13,1.02 ± 0.052,1.04 ± 0.059,1.04 ± 0.1,2.19,2.57,,2.23
VCAP PROSTATE,1.13 ± 0.051,1.03 ± 0.057,1.08 ± 0.081,1.15 ± 0.086,0.279 ± 0.024,0.141 ± 0.0038,0.165 ± 0.0055,0.161 ± 0.013,1.04 ± 0.18,0.99 ± 0.11,1.11 ± 0.13,1.11 ± 0.12,1.14 ± 0.094,1.08 ± 0.11,0.973 ± 0.082,1.02 ± 0.15,2.12,3.11,3.11,2.82

# From the supplement of paper PMC6045584
